Measured values reported in US7579487B2 (dated 2009).

Row | SMILES | melting point [°C]
1 | CC(C)=C(NS(=O)(=O)c1ccc(C)cc1)C(=O)O | 188.5 to 189.5
2 | COc1ccc(S(=O)(=O)NC(C(=O)O)=C(C)C)cc1 | 162.5 to 163.5
3 | CC(C)=C(NS(=O)(=O)c1ccc(F)cc1)C(=O)O | 172 to 173
4 | CC(C)=C(NS(=O)(=O)Cc1ccccc1)C(=O)O | 194 to 195
5 | CC(C)=C(NS(=O)(=O)CCCc1ccccc1)C(=O)O | 104.5 to 106
6 | Cc1ccc(S(=O)(=O)NC(C(=O)O)=C2CCCCC2)cc1 | 221 to 222
7 | O=C(O)C(NS(=O)(=O)c1ccc(F)cc1)=C1CCCCC1 | 214 to 215
8 | CC(C)[C@H](NS(=O)(=O)Cc1ccccc1)C(=O)O | 120 to 121.5
9 | CC(C)[C@H](NS(=O)(=O)CCCc1ccccc1)C(=O)O | 151 to 152
10 | Cc1ccc(S(=O)(=O)NC(C(=O)O)C2CCCCC2)cc1 (stereo not shown) | 182 to 184
11 | O=C(O)C(NS(=O)(=O)c1ccc(F)cc1)C1CCCCC1 (stereo not shown) | 143 to 145

Results, then the compound that gave them:

Row | melting point [°C] | SMILES
12 | 150.5 to 151.5 | C/C=C(/NS(=O)(=O)c1ccc(C)cc1)C(=O)O
13 | 166.5 to 167.5 | Cc1ccc(S(=O)(=O)N/C(=C/C(C)C)C(=O)O)cc1
14 | 116.5 to 117.5 | COc1ccc(S(=O)(=O)NC(C(=O)O)C(C)C)cc1 (stereo not shown)
15 | 133.5 to 135.5 | CCC(NS(=O)(=O)c1ccc(C)cc1)C(=O)O (stereo not shown)
16 | 122 to 123 | Cc1ccc(S(=O)(=O)NC(CC(C)C)C(=O)O)cc1 (stereo not shown)
